Measurements published in patent publication EP0366632A1, “Alternative energy substrates” (priority 1988, dated 1990).
Values joined by “and” are separate entries in the source; they are usually repeats but may differ in a detail not shown here. Equal entries are not always repeated. “Also recorded” adds a separate entry of the source.

Assays:
[1] = Cold storage of fat emulsion (Intralipid) with ester admixture: visual inspection, pH, mean particle size; type: physicochemical; details: for emulsion quality, daily visual inspection / emulsion stability, daily visual inspection / emulsion quality (oil droplets, creaming, oil separation), daily inspection: 5 days; for emulsion quality (oil droplets, creaming, oil separation), daily inspection: Example 5: mother concentrate in Intralipid 10%
Method: A so-called mother concentrate was prepared by dissolving 6 g of egg-yolk phospholipids in 40 g of 4-methyl-3-oxo-pentanoic acid ethyl ester at +60°C, while stirring. 34 g of 99% ethyl alcohol were then added to the solution, whereafter the solution was cooled to room temperature and dispensed into 20 ml glass flasks. Nitrogen gas was then bubbled through the liquid and the flasks then stoppered and capsuled. The bottles were then autoclaved at +120°C and at 118 kPa for 20 minutes. A 10% fat emulsion for parenteral nutrient administration (Intralipid^R retailed by KabiVitrum AB, Stockholm) was added to the preparation under strict asceptic conditions, to a 4-methyl-3-oxo-pentanoic acid ethyl ester concentration of 0.2, 1 and 3% respectively. The emulsion was shaken for 5 minutes in a shaking machine and then placed in a cold environment (+5°C). The emulsion was thereafter observed over a 5 day period, wherewith a daily inspection was carried out to assess the formation of oil droplets, creaming or oil separation. The assessment was made in comparison with a known emulsion for parenteral use (Intralipid^R 10%). […] Subsequent to 5 days storage, an analysis was made of the pH and mean particle size in a Coulter nanosizer. The following values were obtained:
(§1) A so-called mother concentrate produced by dissolving 6 g egg-yolk phospholipids in 40 g of 4-methyl-3-oxo-pentanoic acid-ethyl ester at +60°C, while stirring the system. 34 g of 99% ethyl alcohol were then added to the solution, whereafter the solution was cooled to room temperature and dispensed into 20 ml glass flasks. Nitrogen gas was perculated through the contents of the flasks, and the flasks subsequently stoppered and fitted with capsules. The flasks were then autoclaved at 120°C and 118 kPa over a period of 20 minutes. This preparation was added to a 20% fat emulsion (Intralipid^R) under strict aseptic conditions, such that the concentation of 4-methyl-3-oxo-pentanoic acid ethyl ester was 0.2 and 1 and 3% respectively. The emulsion was shaken for 5 minutes in a shaker and then placed in a cold environment (5°C). The emulsion was inspected over a period of 5 calender days, wherewith a visual inspection was carried out daily in order to ascertain the occurrence of any oil droplets that may form, creaming or oil separation. The assay was effected by comparison with a known emulsion for parenteral use (Intralipid^R 20%). […] The pH of the emulsion was measured after a 5 day storage period. The mean particle size was measured in a Coulter^R nanosizer. The following values were obtained:
as §1, with “prepara tion” for “preparation”, “10%” for “20%”, “10%).” for “20%).”, “obtained: […]” for “obtained:”

[2] = tested on: Candida albicans ATCC 10231; assay: Microorganism count in 2% and 0.2% ester emulsions (Example 15); type: cell-based; details: after 20 hours
Method: The emulsions contained egg-yolk phospholipid 1,2% and sterile water, in addition to ester. The emulsions were prepared aseptically, by emulsifying sterile-filtered ester with a sterilized dispersion of egg-yolk phospholipids.
Aliquots of these emulsions were diluted with phosphate buffer (0.01 M, pH=7.0) in the proportions of 1 and 10 and 1 and 100 of respective emulsions. Candida albicans ATCC 10231 was added to the emulsions. The samples were then incubated at +37°C for 20 hours. The microorganism count was carried out after […], 2 and 20 hours, in the manner described in microbiological literature. Parallel with the above tests, a check was made on phospholipide solution 1,2% and TSB (Tryptone soya broth) with additions Candida albicans ATCC 10231. The latter substrate was tested to ascertain whether or not the microorganisms were viable. After 20 hours, the microorganism count/ml in TSB was 10⁷, and in the phospholipid solution 10⁴. The starting concentration was about 10⁴. After 1-5 minutes, the microorganism count per […] of the tests containing 4-methyl-3-oxo-pentanoic acid ethyl ester with concentrations of 2% and 0.2% was 10⁴ and 10⁴ respectively. After 2 hours, the microorganism count was 10² and 10⁴ respectively, and after 20 hours 0 and 10⁴. […] After 20 hours, the count was 0 and 10² respectively.

[3] = Example 5: Intralipid 10%, 0.2% admix, after 5 days storage
[4] = Example 5: Intralipid 10%, 1% admix, after 5 days storage
[5] = Example 5: Intralipid 10%, 3% admix, after 5 days storage
[6] = Example 30: Intralipid 20%, 0.2% admix
[7] = Example 30: Intralipid 20%, 1% admix
[8] = Example 30: Intralipid 20%, 3% admix
[9] = Example 31: Intralipid 10%, 0.2% admix
[10] = Example 31: Intralipid 10%, 1% admix
[11] = Example 31: Intralipid 10%, 3% admix
[12] = Example 31: Intralipid 10%, 5% admix

In the case of `CCOC(=O)CC(=O)CC(C)C` [5-methyl-3-oxo-hexanoic acid ethyl ester], the “Mean particle size, X” value ([1]; Example 32: Intralipid 20%, 0.2% admix) is reported as 322, the pH ([1]; Example 32: Intralipid 20%, 0.2% admix, after 5 day storage) is reported as 7.4 and the “Mean particle size (single readings, Coulter nanosizer)” value ([1]; Example 32: Intralipid 20%, 0.2% admix, listed as 5-methyl-3-oxo-pentanoic acid ethyl ester) is reported as 317 and 321 and 324. For the same compound, the “Mean particle size, X” value ([1]; Example 32: Intralipid 20%, 1% admix) was 319, the pH ([1]; Example 32: Intralipid 20%, 1% admix, after 5 day storage) was 7.0 and the “Mean particle size (single readings, Coulter nanosizer)” value ([1]; Example 32: Intralipid 20%, 1% admix, listed as 5-methyl-3-oxo-pentanoic acid ethyl ester) was 317 and 324 and 321. The “Mean particle size, X” value ([1]; Example 32: Intralipid 20%, 3% admix) was 324, the pH ([1]; Example 32: Intralipid 20%, 3% admix, after 5 day storage) was 6.7 and the “Mean particle size (single readings, Coulter nanosizer)” value ([1]; Example 32: Intralipid 20%, 3% admix, listed as 5-methyl-3-oxo-pentanoic acid ethyl ester) was 324 and 328 and 321. For the same compound, the “emulsion quality, daily visual inspection” value ([1]; Example 32: mother concentrate in Intralipid 20%, 0.2% addition, +5°C) was “No change in quality”, the “emulsion quality, daily visual inspection” value ([1]; Example 32: mother concentrate in Intralipid 20%, 1% addition, +5°C) was “No change in quality” and the “emulsion quality, daily visual inspection” value ([1]; Example 32: mother concentrate in Intralipid 20%, 3-percent mixture, +5°C) was “fully acceptable over the first 4 days”. For the same compound, the “emulsion stability, daily visual inspection” value (shortened to “emulsion stability”) ([1]; Example 33: pure ester in 10% fat emulsion (Intralipid), 0.2%, +5°C) was “stable over the whole of the test period”, the “emulsion stability” value ([1]; Example 33: pure ester in 10% fat emulsion, 1%, +5°C) was “stable over the whole of the test period” and the “emulsion stability” value ([1]; Example 33: pure ester in 10% fat emulsion, 3%, +5°C) was “stable over the whole of the test period”. For the same compound, the “emulsion stability” value ([1]; Example 33: pure ester in 10% fat emulsion, 5%, +5°C) was “stable over the first 2 days”, the “emulsion stability” value ([1]; Example 33: pure ester in 20 percent emulsion, 0.2%, +5°C) was “remained stable over the whole of the test period” and the “emulsion stability” value ([1]; Example 33: pure ester in 20 percent emulsion, 1%, +5°C) was “remained stable over the whole of the test period”. For the same compound, the “emulsion stability” value ([1]; Example 33: pure ester in 20 percent emulsion, 3%, +5°C) was “remained stable for 1 day” and the microorganism count [2] was 0 per ml.
In the case of `CCOC(=O)CC(=O)C(C)C` [4-methyl-3-oxo-pentanoic acid ethyl ester], the “Mean particle size (single readings, Coulter nanosizer)” value [1, 3] is reported as 258 and 264 and 267 and 250, the “Mean particle size, X” value [1, 3] is reported as 261 and the pH [1, 3] is reported as 7.2. For the same compound, the “Mean particle size (single readings, Coulter nanosizer)” value [1, 4] was 245 and 253 and 250 and 235 and 242, the “Mean particle size, X” value [1, 4] was 246 and the pH [1, 4] was 7.0. For the same compound, the “Mean particle size (single readings, Coulter nanosizer)” value [1, 5] was 264 and 258 and 248 and 250, the “Mean particle size, X” value [1, 5] was 258 and the pH [1, 5] was 6.8. For the same compound, the “emulsion quality (oil droplets, creaming, oil separation), daily inspection” value ([1]; 1% addition, +5°C) was “had no affect on the quality”, the “emulsion quality (oil droplets, creaming, oil separation), daily inspection” value ([1]; 3% addition, +5°C) was “fully acceptable, but deteriorated slowly during day 4 and 5” and the “Mean particle size (single readings, Coulter nanosizer)” value [1, 6] was 325 and 316 and 320 and 327. For the same compound, the “Mean particle size, X” value [1, 6] was 323, the pH ([1]; Example 30: Intralipid 20%, 0.2% admix, after 5 day storage) was 7.3 and the “Mean particle size (single readings, Coulter nanosizer)” value [1, 7] was 323 and 327 and 329 and 319 and 336. The “Mean particle size, X” value [1, 7] was 326, the pH ([1]; Example 30: Intralipid 20%, 1% admix, after 5 day storage) was 6.9 and the “Mean particle size (single readings, Coulter nanosizer)” value [1, 8] was 322 and 319 and 320 and 333. For the same compound, the “Mean particle size, X” value [1, 8] was 323, the pH ([1]; Example 30: Intralipid 20%, 3% admix, after 5 day storage) was 6.5 and the “emulsion quality, daily visual inspection” value ([1]; Example 30: mother concentrate in Intralipid 20%, 0.2% addition, 5°C) was “No change in quality”. For the same compound, the “emulsion quality, daily visual inspection” value ([1]; Example 30: mother concentrate in Intralipid 20%, 1% addition, 5°C) was “No change in quality”, the “emulsion quality, daily visual inspection” value ([1]; Example 30: mother concentrate in Intralipid 20%, 3-percent mixture, 5°C) was “fully acceptable over the first 3 days” and the “Mean particle size (single readings, Coulter nanosizer)” value [1, 9] was 241 and 239 and 246. The “Mean particle size, X” value [1, 9] was 241, the pH ([1]; Example 31: Intralipid 10%, 0.2% admix, after 5 day storage) was 7.3 and the “Mean particle size (single readings, Coulter nanosizer)” value [1, 10] was 244 and 249 and 246 and 251. For the same compound, the “Mean particle size, X” value [1, 10] was 247, the pH ([1]; Example 31: Intralipid 10%, 1% admix, after 5 day storage) was 6.9 and the “Mean particle size (single readings, Coulter nanosizer)” value [1, 11] was 249 and 246 and 240 and 236 and 243. For the same compound, the “Mean particle size, X” value [1, 11] was 243, the pH ([1]; Example 31: Intralipid 10%, 3% admix, after 5 day storage) was 6.7 and the “Mean particle size (single readings, Coulter nanosizer)” value [1, 12] was 244 and 252 and 254. For the same compound, the “Mean particle size, X” value [1, 12] was 251, the pH ([1]; Example 31: Intralipid 10%, 5% admix, after 5 day storage) was 6.7 and the “emulsion quality, daily visual inspection” value ([1]; Example 31: mother concentrate in Intralipid 10%, 0.2% addition, 5°C) was “No change in quality”. The “emulsion quality, daily visual inspection” value ([1]; Example 31: mother concentrate in Intralipid 10%, 1% addition, 5°C) was “No change in quality”, the “emulsion quality, daily visual inspection” value ([1]; Example 31: mother concentrate in Intralipid 10%, 3% addition, 5°C) was “No change in quality; also recorded: fully acceptable over the first 3 days” and the pH ([1]; Example 34: 20 percent fat emulsion, 5% emulsion, end of 5-day period (reference emulsion pH=7.9)) was 5.0. The “emulsion stability” value ([1]; Example 34: pure ester in 10% fat emulsion (Intralipid), 0.2%, +5°C) was “stable over the whole of the test period”, the “emulsion stability” value ([1]; Example 34: pure ester in 10% fat emulsion, 1%, +5°C) was “stable over the whole of the test period” and the “emulsion stability” value ([1]; Example 34: pure ester in 10% fat emulsion, 3%, +5°C) was “stable over the whole of the test period”. For the same compound, the “emulsion stability” value ([1]; Example 34: pure ester in 10% fat emulsion, 5%, +5°C) was “stable over the whole of the test period; also recorded: stable over the first 2 days”, the “emulsion stability” value ([1]; Example 34: pure ester in 20 percent fat emulsion, 1% admixture, +5°C) was “remained stable over the whole of the test period” and the “emulsion stability” value ([1]; Example 34: pure ester in 20 percent fat emulsion, 5% admixture, +5°C) was “remained stable for 2 days”. For the same compound, the microorganism count [2] was 0 per ml.
